According to patent publication US20140112895A1, “GLP-1 PROMOTER MEDIATED INSULIN EXPRESSION FOR THE TREATMENT OF DIABETES” (priority 2010, published 2014):

Tested on: STC-1 cells
Assay: MTT assay of antibiotic cytotoxicity on STC-1 cells
Type: cell-based, mouse
Conditions: STC-1 cells without antibiotic resistant gene; antibiotic range 0 to 1 mg/ml; optical density read at 560 nm
Excerpt: For assessment of antibiotic cytotoxicity, a common methodology is the MTT assay which has been widely used as a colorimetric approach based on the activity of living cells. MTT assay is a standard assay (an assay which measures changes in color) for measuring cellular proliferation. Yellow MTT (3-(4,5-Dimethylthiazol-2-yl)-2,5-diphenyltetrazolium bromide, a tetrazole) is reduced to purple formazan in the mitochondria of living cells. The absorbance of this colored solution can be quantified by measuring at a certain wavelength (usually between 500 and 600 nm) by a spectrophotometer.
Therefore, the MTT assay was done for both antibiotics to determine the appropriate concentration of the antibiotic that kills the entire STC-1 cells lacking the antibiotic resistant gene. In this case, STC-1 cells (without any antibiotic resistant gene) were treated with different concentration of zeocin and geneticin antibiotic. The concentration of antibiotics in the culture media was in the range of 0 to 1 mg/ml in 12 wells (Table 7).
Optical density of solutions was read at 560 nm on an ELISA plate reader. The absorbance of colored solution is directly proportional to the number of cells. Based on MTT assay result, the concentration of geneticin and zeocin antibiotic that are able to kill all the STC-1 cells (without antibiotic resistant gene) were 400 ug/ml and 500 ug/ml.

SMILES	concentration of antibiotic able to kill all the STC-1 cells
CN[C@@H]1[C@@H](O)[C@@H](O[C@@H]2[C@@H](O)[C@H](O[C@H]3O[C@H]([C@@H](C)O)[C@@H](O)[C@H](O)[C@H]3N)[C@@H](N)C[C@H]2N)OC[C@]1(C)O [geneticin]	400 µg/mL
Cc1c(N)nc([C@H](CC(N)=O)NC[C@H](N)C(N)=O)nc1C(=O)N[C@H](C(=O)N[C@H](C)[C@@H](O)[C@H](C)C(=O)N[C@H](C(=O)NCCC1=N[C@@H](c2nc(C(=O)NCCCCN=C(N)N)cs2)CS1)[C@@H](C)O)[C@@H](O[C@@H]1O[C@@H](CO)[C@@H](O)[C@H](O)[C@@H]1O[C@H]1O[C@H](CO)[C@@H](O)[C@H](OC(N)=O)[C@@H]1O)c1cnc[nH]1 [zeocin]	500 µg/mL
